Marks after values point to notes of the source that are not given here.
Assays:
[1] = system: C57BL/6 mice, high spontaneous activity induced by phencyclidine (PCP); assay: High spontaneous activity model of mice induced by phencyclidine (PCP); type: in vivo; settings: 60 minutes after modeling
Source text: Test Example 2. Pharmacodynamic Evaluation of the Present Compounds in Mice Model of High Spontaneous Activity Induced by Phencyclidine (PCP)
The purpose of the experiment is to evaluate the efficacy of compounds in a high spontaneous activity model of C57BL/6 mice induced by phencyclidine (PCP) using the spontaneous activity method.
C57BL/6 mice, provided by Shanghai Lingchang Biotechnology Co., Ltd., male, 6-8 weeks, 20-24 g, 36 mice.
The day before the experimental test, the animals were placed in the laboratory and acclimated for 8 hours.
On the day of adaptation, the animals were randomly grouped according to their weight.
The animals were weithed and treated with solvent control (20% HP-3-CD), compounds of the present invention (oral administration) respectively. 30 minutes later, modeling (intraperitoneal administration) was performed, and the animals were given physiological saline or phencyclidine, with dosage volume of 10 mL/kg.
After the administration, the animals were placed in observation box and the spontaneous activity was detected for 30 minutes. The moving distance (meters) of the animals in the observation box was counted every 5 minutes.
After 30 minutes, the animals were taken out for modeling and then placed in the observation box to test their spontaneous activity for 60 minutes. The moving distance (meters) of the animals in the observation box was counted every 5 minutes.
Excel software was used to collect data. A Two-Way ANOVA or One-Way ANOVA was conducted used Prism (Graph pad software, Inc.) software. p<0.05 was considered significant difference.

[2] = Pharmacokinetic assay of Balb/c mice, plasma and brain, oral; type: in vivo; settings: male, mouse, p.o. 5 mg/kg
Experimental: Test Example 3. Pharmacokinetic Assay of Balb/c Mice
Balb/c Mice were used as test animals. The pharmacokinetic behavior of the compounds of the present invention was studied in the plasma and brain of mice administered orally at the dose of 5 mg/kg.
Balb/c Mice, male, Shanghai Jiesijie Experimental Animal Co., Ltd., animal production license number (SCXK (Shanghai) 2013-0006 N0.311620400001794).
After fasting overnight, 24 male Balb/c mice were administered p.o. at a dose of 5 mg/kg and an administration volume of 10 mL/kg, respectively.
Drug formulation for oral administration: 0.5% CMC-Na (1% Tween 80).
After CO2 euthanasia of experimental animals, heart blood and brain tissue were collected at 0.25 h, 0.5 h, 1 h, 2 h, 4 h, 6 h, 8 h, and 24 h after administration. The blood was placed in EDTA-2K tubes and centrifuged at 4° C. and 6000 rpm for 6 minutes to separate plasma. The brain tissue was washed with pre-cooled PBS, dried, weighed, and stored at −80° C. The animals were feed 4 hours after administration.
1) 160 μL of acetonitrile was added to 40 μL of the plasma sample for precipitation, and then the mixture was centrifuged at 3500×g for 5-20 min.
2) 100 μL of the supernatant was taken to analyze the concentration of the test compound by LC/MS/MS.
• Liquid chromatography condition: Shimadzu LC-20AD pump • Mass spectrometry condition: AB Sciex API 4000 mass spectrometer • Chromatographic column: phenomenex Gemiu 5 μm C18 50×4.6 mm • Mobile phase: Eluent A was 0.10% formic acid in water, and Eluent B was acetonitrile • Flow rate: […] • Elution time: 0-4.0 minutes, the eluent is as follows:
The main pharmacokinetic parameters were calculated using WinNonlin8.1, and the results of the pharmacokinetic experiments in mouse are shown in the table below.

ADRA1A receptor = target: T1, ADRA1A receptor (Homo sapiens, UniProt P35348); assay: Effect on calcium current in cells which stably express ADRA1A receptor; type: cell-based
T1 construct: expressed in transfected cells
T1 sequence (P35348 1-466): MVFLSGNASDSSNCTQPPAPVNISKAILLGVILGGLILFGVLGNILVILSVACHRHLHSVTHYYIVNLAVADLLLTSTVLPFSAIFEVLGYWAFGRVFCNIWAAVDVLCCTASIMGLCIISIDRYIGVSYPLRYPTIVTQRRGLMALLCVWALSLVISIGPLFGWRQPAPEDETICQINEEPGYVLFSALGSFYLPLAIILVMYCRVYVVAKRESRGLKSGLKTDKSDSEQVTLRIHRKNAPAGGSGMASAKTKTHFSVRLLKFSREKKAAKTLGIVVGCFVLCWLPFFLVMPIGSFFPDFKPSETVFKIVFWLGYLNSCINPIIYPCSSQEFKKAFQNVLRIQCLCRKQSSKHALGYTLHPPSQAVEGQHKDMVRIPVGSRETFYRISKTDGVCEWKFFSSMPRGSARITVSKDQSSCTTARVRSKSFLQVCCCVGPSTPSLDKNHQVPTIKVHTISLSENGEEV
Experimental: Test Example 4. Determination of the Effect of the Present Compounds on Calcium Current in the Cells which Stably Express ADRA1A Receptor
Determination of the activation effect of the compounds on ADRA1A receptors.
1) Flp In-CHO-ADRA1A Stable Pool cell lines were cultured in complete medium at 37° C., 5% CO2 to 70%-90% fusion.
2) Complete culture medium: Ham's F12K+10% FBS+1*Penicillin−Streptomycin+600 μg/mL Hygromycin B; Cell inoculation medium: Ham's F12K++10% FBS; Experimental buffer: 1×HBSS+20 mM HEPES
3) After TrypLE digestion, the cells were re-suspended in the inoculation medium and inoculated in 384 well cell culture plate (Corning, 3764). 7000 cells were inoculated into each well and incubated overnight at 37° C. and 5% CO2.
4) 20× Component A was freeze-thaw to room temperature, and then diluted with experimental buffer to 2× working concentration including 5 mM Probenecid, which was then placed at room temperature for use.
5) The cell culture plate was taken out, and let to stand at room temperature for 10 minutes. The plate was subject to inverted centrifugation at 200 g, and RT centrifugation for 1 second, and then 20 μL Assay buffer was quickly added to the cell culture plate. Then 20 μL 2× Component A containing 5 mM Probenecid was added to each experimental well, which was centrifuged by RT at 200 g for 3-5 seconds, and incubated at 37° C. for 2 hours.
6) The working solution (5×) for the compound to be tested was prepared and placed and at room temperature for use.
7) The cell culture plate was taken out and let to stand at room temperature for 10 minutes.
8) 10 μL diluteSd compound working solution in step 6) was added to each the experimental well using FLIPR Tetra and data were collected.
[formula] • 5) EC50 of the compounds was calculated by GraphPad nonlinear fitting formula:
[formula] • X: Log value of the compound concentration; Y: Activation %

[3] = compound 3 mg/kg oral + PCP 5 mg/kg i.p.
[4] = compound 1 mg/kg oral + PCP 5 mg/kg i.p.

Row | SMILES | Total distance (m, Mean ± SEM) 60 minutes [1, 3] | AUC(0-t) ([2]; Brain) | Cmax ([2]; Brain) | Tmax ([2]; Brain) | half-life ([2]; Brain) | AUC(0-t) ([2]; Plasma) | Cmax ([2]; Plasma) | Tmax ([2]; Plasma) | half-life ([2]; Plasma) | EC50 (ADRA1A receptor) | Total distance (m, Mean ± SEM) 60 minutes [1, 4] | Total distance (m, Mean ± SEM) 60 minutes ([1]; compound 10 mg/kg oral + PCP 5 mg/kg i.p.)
1 | [2H]C1([2H])COC(c2cccc(C)n2)CN1 (single isomer, unassigned) [Example 10-2, 2-(6-Methylpyridin-2-yl)morpholin-5,5-d2] | 152.6*** m | 12500 ng·h/mL | 3540 ng/mL | 30 min | 150 min | 5430 ng·h/mL | 1320 ng/mL | 15 min | 144 min | 1.17 µM | – | –
2 | [2H]C1([2H])CO[C@@H](c2ccc(F)cn2)CN1 (single isomer, unassigned) [Example 17-2, 2-(5-fluoropyridin-2-yl)morpholin-5,5-d2] | 114.1*** m | 7500 ng·h/mL | 3160 ng/mL | 30 min | – | 2630 ng·h/mL | 1450 ng/mL | 15 min | 78 min | 3.17 µM | 140.1*** m | –
3 | [2H]C1([2H])CO[C@H](c2ccc(F)cc2)CN1 (single isomer, unassigned) [Example 33-1, 2-(4-Fluorophenyl)morpholin-5,5-d2] | 126.3*** m | 15300 ng·h/mL | 8360 ng/mL | 15 min | 192 min | 5030 ng·h/mL | 1970 ng/mL | 15 min | 192 min | 1.41 µM | 136.4*** m | 83.23*** m

Source: patent US20250051316A1, “2-(ARYL-2-YL) […] […], PREPARATION METHOD THEREFOR AND APPLICATION THEREOF” (SHANGHAI HANSOH BIOMEDICAL CO., LTD., priority 2021, published 2025)
